Target: cAMP-specific 3',5'-cyclic phosphodiesterase 4A (Homo sapiens, UniProt P27815)
Assay: PDE4A Inhibition Assay
Protocol: Inhibition of PDE4A was performed using IMAP technology (Molecular Devices, CA). PDE4A1A mixture was dispensed into 1536-well black/solid bottom assay plates (Greiner Bio-One North America, NC) using a Flying Reagent Dispenser (Aurora Discovery, CA). The plates were centrifuged at 1000 rpm for 30s and compound was transferred to the assay plate using a Kalypsys pin tool. After incubation, cAMP was dispensed into the plates to initiate the reaction. IMAP binding reagent was then added to the assay plate after the reaction.

Chain of cAMP-specific 3',5'-cyclic phosphodiesterase 4A (P27815 whole entry): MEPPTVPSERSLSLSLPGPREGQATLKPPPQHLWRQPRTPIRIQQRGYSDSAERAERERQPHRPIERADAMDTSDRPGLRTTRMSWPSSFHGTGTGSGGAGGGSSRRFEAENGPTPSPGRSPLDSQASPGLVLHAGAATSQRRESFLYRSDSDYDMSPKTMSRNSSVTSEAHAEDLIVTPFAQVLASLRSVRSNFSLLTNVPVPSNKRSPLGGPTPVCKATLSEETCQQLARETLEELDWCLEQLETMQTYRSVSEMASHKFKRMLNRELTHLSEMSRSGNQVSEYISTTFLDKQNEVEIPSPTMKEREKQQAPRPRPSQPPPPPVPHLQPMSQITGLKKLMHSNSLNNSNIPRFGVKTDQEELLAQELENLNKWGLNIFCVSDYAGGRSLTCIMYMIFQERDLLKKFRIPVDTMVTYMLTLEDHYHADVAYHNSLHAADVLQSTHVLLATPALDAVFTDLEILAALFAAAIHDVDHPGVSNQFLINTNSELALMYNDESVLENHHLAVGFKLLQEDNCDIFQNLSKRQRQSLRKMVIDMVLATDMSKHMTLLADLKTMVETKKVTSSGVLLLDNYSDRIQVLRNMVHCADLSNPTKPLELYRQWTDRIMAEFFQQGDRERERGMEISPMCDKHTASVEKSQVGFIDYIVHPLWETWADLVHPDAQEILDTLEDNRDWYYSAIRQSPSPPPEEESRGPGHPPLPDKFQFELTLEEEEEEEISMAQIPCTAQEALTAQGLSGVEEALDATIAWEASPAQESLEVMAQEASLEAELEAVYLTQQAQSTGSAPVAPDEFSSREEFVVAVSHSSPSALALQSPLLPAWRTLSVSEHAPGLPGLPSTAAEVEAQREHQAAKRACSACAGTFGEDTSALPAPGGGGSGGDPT

| IC50 [µM] | IC50 (pH 7.2, 22 °C) [µM] | Compound |
| --- | --- | --- |
| 5.3 |  | COc1ccc(-c2nnc3n2N=C(c2cc(OC)ccc2OC)CS3)c(OC)c1 [triazolothiadiazine, 10E] |
|  | 0.05 | COc1cc(OC)cc(-c2nnc3n2N=C(c2ccc(OC)c(OC)c2)CS3)c1 [triazolothiadiazine, 5H] |
|  | > 20 | COc1ccccc1C1=Nn2c(nnc2-c2ccccc2O)SC1 [triazolothiadiazine, 6K] |
| 19.6 |  | COc1cc(OC)cc(-c2nnc3n2N=C(c2c(OC)cccc2OC)CS3)c1 [triazolothiadiazine, 11H] |
| 10.1 |  | COc1ccc(-c2nnc3n2N=C(c2cc(OC)ccc2OC)CS3)cc1 [triazolothiadiazine, 10C] |
| > 20 |  | COc1ccc(-c2nnc3n2N=C(c2c(OC)cccc2OC)CS3)c(OC)c1 [triazolothiadiazine, 11E] |
| 7.5 |  | COc1ccc(C2=Nn3c(nnc3-c3ccc(OC)c(OC)c3)SC2)cc1 [triazolothiadiazine, 8G] |
| 3.2 |  | COc1cccc(C2=Nn3c(nnc3-c3ccccc3C)SC2)c1 [triazolothiadiazine, 7I] |
| 13.4 |  | CCOc1ccccc1-c1nnc2n1N=C(c1cc(OC)ccc1OC)CS2 [triazolothiadiazine, 10J] |
| 14.1 |  | COc1cccc(C2=Nn3c(nnc3-c3ccccc3O)SC2)c1 [triazolothiadiazine, 7K] |
| > 20 |  | COc1ccc(C2=Nn3c(nnc3-c3ccccc3C)SC2)c(OC)c1 [triazolothiadiazine, 9I] |
| 6.3 |  | COc1ccc(OC)c(C2=Nn3c(nnc3-c3ccccc3C)SC2)c1 [triazolothiadiazine, 10I] |
| > 20 |  | COc1cc(OC)cc(-c2nnc3n2N=C(c2ccc(OC)cc2OC)CS3)c1 [triazolothiadiazine, 9H] |
| > 20 |  | COc1cccc(-c2nnc3n2N=C(c2c(OC)cccc2OC)CS3)c1 [triazolothiadiazine, 11B] |
| 1.7 |  | COc1ccc(C2=Nn3c(nnc3-c3cc(OC)ccc3OC)SC2)cc1 [triazolothiadiazine, 8F] |
|  | 12.6 | COc1cccc(C2=Nn3c(nnc3-c3cccc(OC)c3)SC2)c1 [triazolothiadiazine, 7B] |
|  | 8.4 | COc1ccc(-c2nnc3n2N=C(c2cccc(OC)c2)CS3)cc1 [triazolothiadiazine, 7C] |
| > 20 |  | CCOc1ccccc1-c1nnc2n1N=C(c1c(OC)cccc1OC)CS2 [triazolothiadiazine, 11J] |
|  | > 20 | COc1ccccc1C1=Nn2c(nnc2-c2cccc(OC)c2OC)SC1 [triazolothiadiazine, 6D] |
| 12.6 |  | COc1ccc(C2=Nn3c(nnc3-c3cccc(OC)c3)SC2)cc1 [triazolothiadiazine, 8B] |
| > 20 |  | COc1cccc(-c2nnc3n2N=C(c2c(OC)cccc2OC)CS3)c1OC [triazolothiadiazine, 11D] |
| > 20 |  | COc1ccccc1-c1nnc2n1N=C(c1c(OC)cccc1OC)CS2 [triazolothiadiazine, 11A] |
| 12.5 |  | COc1ccc(C2=Nn3c(nnc3-c3ccccc3C)SC2)cc1 [triazolothiadiazine, 8I] |
| 11.2 |  | CCOc1ccccc1-c1nnc2n1N=C(c1cccc(OC)c1)CS2 [triazolothiadiazine, 7J] |
|  | 13.4 | COc1cccc(C2=Nn3c(nnc3-c3ccc(OC)cc3OC)SC2)c1 [triazolothiadiazine, 7E] |
|  | > 20 | CCOc1ccccc1-c1nnc2n1N=C(c1ccccc1OC)CS2 [triazolothiadiazine, 6J] |
| 14.1 |  | COc1cccc(-c2nnc3n2N=C(c2ccc(OC)cc2OC)CS3)c1 [triazolothiadiazine, 9B] |
| > 20 |  | COc1cccc(OC)c1C1=Nn2c(nnc2-c2ccccc2O)SC1 [triazolothiadiazine, 11K] |

Second part, the compound before the results:

| Compound | IC50 [µM] | IC50 (pH 7.2, 22 °C) [µM] |
| --- | --- | --- |
| COc1ccc(C2=Nn3c(nnc3-c3cccc(OC)c3OC)SC2)c(OC)c1 [triazolothiadiazine, 9D] | > 20 |  |
| COc1ccc(OC)c(C2=Nn3c(nnc3-c3ccc(OC)c(OC)c3)SC2)c1 [triazolothiadiazine, 10G] | 6.9 |  |
| COc1ccc(-c2nnc3n2N=C(c2ccc(OC)c(OC)c2)CS3)cc1 [triazolothiadiazine, 5C] |  | 0.0889 |
| COc1cccc(OC)c1C1=Nn2c(nnc2-c2ccccc2C)SC1 [triazolothiadiazine, 11I] | 14.1 |  |
| COc1ccc(-c2nnc3n2N=C(c2c(OC)cccc2OC)CS3)cc1OC [triazolothiadiazine, 11G] | 14.1 |  |
| COc1ccc(C2=Nn3c(nnc3-c3ccc(OC)c(OC)c3)SC2)c(OC)c1 [triazolothiadiazine, 9G] | 6.7 |  |
| COc1ccc(C2=Nn3c(nnc3-c3ccc(OC)cc3OC)SC2)c(OC)c1 [triazolothiadiazine, 9E] | > 20 |  |
| COc1cccc(-c2nnc3n2N=C(c2ccccc2OC)CS3)c1 [triazolothiadiazine, 6B] |  | 13.4 |
| COc1ccc(C2=Nn3c(nnc3-c3cc(OC)cc(OC)c3)SC2)cc1 [triazolothiadiazine, 8H] | 9.5 |  |
| COc1ccc(-c2nnc3n2N=C(c2ccc(OC)cc2OC)CS3)cc1 [triazolothiadiazine, 9C] | 13.4 |  |
| COc1cccc(-c2nnc3n2N=C(c2ccc(OC)c(OC)c2)CS3)c1 [triazolothiadiazine, 5B] |  | 0.126 |
| CCOc1ccccc1-c1nnc2n1N=C(c1ccc(OC)cc1OC)CS2 [triazolothiadiazine, 9J] | > 20 |  |
| COc1cccc(C2=Nn3c(nnc3-c3cccc(OC)c3OC)SC2)c1 [triazolothiadiazine, 7D] |  | > 20 |
| COc1ccc(OC)c(C2=Nn3c(nnc3-c3cccc(OC)c3OC)SC2)c1 [triazolothiadiazine, 10D] | 11.9 |  |
| COc1ccc(OC)c(C2=Nn3c(nnc3-c3cc(OC)ccc3OC)SC2)c1 [triazolothiadiazine, 10F] | 11.9 |  |
| COc1ccc(-c2nnc3n2N=C(c2ccccc2OC)CS3)cc1 [triazolothiadiazine, 6C] |  | 14.1 |
| COc1cc(OC)cc(-c2nnc3n2N=C(c2cc(OC)ccc2OC)CS3)c1 [triazolothiadiazine, 10H] | 12.7 |  |
| COc1cccc(C2=Nn3c(nnc3-c3ccc(OC)c(OC)c3)SC2)c1 [triazolothiadiazine, 7G] |  | 9 |
| CCOc1ccccc1-c1nnc2n1N=C(c1ccc(OC)cc1)CS2 [triazolothiadiazine, 8J] | 4.5 |  |
| COc1ccc(OC)c(C2=Nn3c(nnc3-c3ccccc3OC)SC2)c1 [triazolothiadiazine, 10A] | 8.9 |  |
| COc1ccc(C2=Nn3c(nnc3-c3ccccc3O)SC2)c(OC)c1 [triazolothiadiazine, 9K] | > 20 |  |
| COc1ccccc1C1=Nn2c(nnc2-c2ccccc2OC)SC1 [triazolothiadiazine, 6A] |  | 20 |

| Compound | IC50 [µM] | IC50 (pH 7.2, 22 °C) [µM] |
| --- | --- | --- |
| COc1ccc(C2=Nn3c(nnc3-c3ccccc3O)SC2)cc1 [triazolothiadiazine, 8K] | 8.4 |  |
| COc1cccc(-c2nnc3n2N=C(c2cc(OC)ccc2OC)CS3)c1 | 12.6 |  |
| COc1cccc(C2=Nn3c(nnc3-c3cc(OC)cc(OC)c3)SC2)c1 [triazolothiadiazine, 7H] |  | 13.4 |
| COc1ccc(-c2nnc3n2N=C(c2c(OC)cccc2OC)CS3)cc1 [triazolothiadiazine, 11C] | 19.7 |  |
| COc1ccc(C2=Nn3c(nnc3-c3ccccc3OC)SC2)cc1 [triazolothiadiazine, 8A] | > 20 |  |
| COc1ccc(OC)c(-c2nnc3n2N=C(c2ccccc2OC)CS3)c1 [triazolothiadiazine, 6F] |  | 19.6 |
| COc1ccc(C2=Nn3c(nnc3-c3ccc(OC)cc3OC)SC2)cc1 [triazolothiadiazine, 8E] | > 20 |  |
| COc1cccc(C2=Nn3c(nnc3-c3ccccc3OC)SC2)c1 [triazolothiadiazine, 7A] |  | 12 |
| COc1ccc(-c2nnc3n2N=C(c2ccccc2OC)CS3)cc1OC [triazolothiadiazine, 6G] |  | 8.9 |
| COc1ccc(C2=Nn3c(nnc3-c3ccc(OC)c(OC)c3)SC2)cc1OC [triazolothiadiazine, 5G] |  | 0.177 |
| COc1ccc(-c2nnc3n2N=C(c2ccccc2OC)CS3)c(OC)c1 [triazolothiadiazine, 6E] |  | 19.7 |
| COc1ccc(C2=Nn3c(nnc3-c3ccc(OC)cc3)SC2)cc1 | 8.4 |  |
| COc1ccc(-c2nnc3n2N=C(c2ccc(OC)c(OC)c2)CS3)c(OC)c1 [triazolothiadiazine, 5E] |  | 0.079 |
| COc1ccc(C2=Nn3c(nnc3-c3ccccc3OC)SC2)c(OC)c1 [triazolothiadiazine, 9A] | 15 |  |
| COc1ccc(OC)c(C2=Nn3c(nnc3-c3ccccc3O)SC2)c1 [triazolothiadiazine, 10K] | > 20 |  |
| COc1ccccc1C1=Nn2c(nnc2-c2ccccc2C)SC1 [triazolothiadiazine, 6I] |  | 14.1 |
| COc1cc(OC)cc(-c2nnc3n2N=C(c2ccccc2OC)CS3)c1 [triazolothiadiazine, 6H] |  | 13.4 |
| COc1ccc(OC)c(-c2nnc3n2N=C(c2c(OC)cccc2OC)CS3)c1 [triazolothiadiazine, 11F] | > 20 |  |
| COc1ccc(C2=Nn3c(nnc3-c3cccc(OC)c3OC)SC2)cc1 [triazolothiadiazine, 8D] | > 20 |  |
| COc1cccc(C2=Nn3c(nnc3-c3cc(OC)ccc3OC)SC2)c1 [triazolothiadiazine, 7F] |  | 8 |
| COc1ccc(C2=Nn3c(nnc3-c3cc(OC)ccc3OC)SC2)c(OC)c1 [triazolothiadiazine, 9F] | 7.5 |  |

From BindingDB's records for doi:10.1016/j.bmcl.2008.01.028 (Nih, 2008)
